According to ChEMBL document CHEMBL1144261, “Synthesis of alkyne derivatives of a novel triazolopyrazine as A(2A) adenosine receptor antagonists” (Bioorg Med Chem Lett, 2005):

Experiments:
Adenosine receptor A2a = Adenosine receptor A2a (Rattus norvegicus, UniProt P30543); test: Binding affinity towards Adenosine A2A receptor of rat brain tissues using [3H]ZM-241385 as radioligand
Adenosine receptor A1 = target: T1, Adenosine receptor A1 (Rattus norvegicus, UniProt P25099); test: Binding affinity towards Adenosine A1 receptor of rat cerebral cortex using [3H]-DPCPX as radioligand
T1 sequence (P25099 whole entry): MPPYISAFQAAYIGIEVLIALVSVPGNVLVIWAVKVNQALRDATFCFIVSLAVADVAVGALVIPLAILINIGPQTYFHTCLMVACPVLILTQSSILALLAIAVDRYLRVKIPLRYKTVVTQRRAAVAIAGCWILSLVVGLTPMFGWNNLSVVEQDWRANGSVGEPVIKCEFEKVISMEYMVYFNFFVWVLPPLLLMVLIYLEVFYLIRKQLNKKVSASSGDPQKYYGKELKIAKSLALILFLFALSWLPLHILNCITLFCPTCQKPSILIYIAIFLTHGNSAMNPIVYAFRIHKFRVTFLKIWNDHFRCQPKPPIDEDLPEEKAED

Adenosine receptor A2a, sequence (P30543 whole entry): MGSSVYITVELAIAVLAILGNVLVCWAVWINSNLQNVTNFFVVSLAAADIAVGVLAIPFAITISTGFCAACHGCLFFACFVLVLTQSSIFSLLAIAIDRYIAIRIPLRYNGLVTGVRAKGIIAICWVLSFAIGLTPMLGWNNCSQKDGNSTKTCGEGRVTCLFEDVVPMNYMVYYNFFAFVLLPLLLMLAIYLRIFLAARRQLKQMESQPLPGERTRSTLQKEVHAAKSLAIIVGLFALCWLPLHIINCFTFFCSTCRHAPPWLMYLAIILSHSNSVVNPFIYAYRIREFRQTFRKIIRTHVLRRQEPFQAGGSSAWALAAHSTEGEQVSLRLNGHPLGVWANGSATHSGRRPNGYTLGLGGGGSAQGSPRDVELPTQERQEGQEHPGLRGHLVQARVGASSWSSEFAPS

Row | Ki (Adenosine receptor A2a) [nM] | Ki (Adenosine receptor A1) [nM] | SMILES
1 | 310 | 4300 | Nc1nc(C#CCOc2ccc(F)c(Cl)c2)cn2nc(-c3ccco3)nc12
2 | 280 | 680 | Nc1nc(C#CCC2CCCCC2)cn2nc(-c3ccco3)nc12
3 | 42 | 66 | CC(O)(C#Cc1cn2nc(-c3ccco3)nc2c(N)n1)c1ccc(O)cc1 (centres undefined)
4 | 89 | 1800 | Cn1nc(OCC#Cc2cn3nc(-c4ccco4)nc3c(N)n2)cc1C(F)(F)F
5 | 33 | 110 | CC(O)(C#Cc1cn2nc(-c3ccco3)nc2c(N)n1)c1ccc([N+]2=CC=NC2)cc1 (centres undefined)
6 | 7.3 | 11 | Nc1nc(C#CC(O)C2(O)CCCCC2)cn2nc(-c3ccco3)nc12 (centres undefined)
7 | > 500 | > 500 | Nc1nc(C#CCO)cn2nc(-c3ccco3)nc12
8 | 390 | 530 | Nc1nc(C#CCOc2ccccc2)cn2nc(-c3ccco3)nc12
9 | 9 | 33 | CCC(O)(C#Cc1cn2nc(-c3ccco3)nc2c(N)n1)CC
10 | 1100 | – | CN(C)c1ccc(C(O)(C#Cc2cn3nc(-c4ccco4)nc3c(N)n2)C(F)(F)F)cc1 (centres undefined)
11 | 37 | 96 | CC(C#Cc1cn2nc(-c3ccco3)nc2c(N)n1)OC(C)(C)C (centres undefined)
12 | 33 | 340 | CC(O)(C#Cc1cn2nc(-c3ccco3)nc2c(N)n1)c1csc2ccccc12 (centres undefined)
13 | 92 | 110 | Nc1nc(C#CCOc2cccnc2)cn2nc(-c3ccco3)nc12
14 | 3.7 | 24 | CC(C)CCC(C)(O)C#Cc1cn2nc(-c3ccco3)nc2c(N)n1 (centres undefined)
15 | 7 | 8 | CC(C)C(O)(C#Cc1cn2nc(-c3ccco3)nc2c(N)n1)C(C)C
16 | 340 | 2400 | Nc1nc(C#CC(O)c2ccccc2)cn2nc(-c3ccco3)nc12 (centres undefined)
17 | 210 | 35 | Nc1nc(C#CC2(N)CCCCC2)cn2nc(-c3ccco3)nc12
18 | 260 | 73 | Nc1nc(C#CC(O)c2csc3ccccc23)cn2nc(-c3ccco3)nc12 (centres undefined)
19 | 74 | 2200 | Nc1nc(C#CC(O)(c2ccccc2)C(F)(F)F)cn2nc(-c3ccco3)nc12 (centres undefined)
20 | > 1000 | – | Nc1nc(C#Cc2ccc(F)cc2F)cn2nc(-c3ccco3)nc12
21 | 25 | 170 | CC(O)(C#Cc1cn2nc(-c3ccco3)nc2c(N)n1)c1ccncc1 (centres undefined)
22 | 30 | 72 | Nc1nc(C#CC(O)C2(O)CCCC2)cn2nc(-c3ccco3)nc12 (centres undefined)
23 | 1600 | – | CC(O)(C#Cc1cn2nc(-c3ccco3)nc2c(N)n1)c1cccc(C(F)(F)F)c1F (centres undefined)

Row | SMILES | Ki (Adenosine receptor A2a) [nM] | Ki (Adenosine receptor A1) [nM]
24 | Nc1nc(C#CC(O)C2(O)CCC2)cn2nc(-c3ccco3)nc12 (centres undefined) | 12 | 2.5
25 | CC(O)(C#Cc1cn2nc(-c3ccco3)nc2c(N)n1)Cc1ccncc1 (centres undefined) | 1.1 | 100
26 | CC(O)(C#Cc1cn2nc(-c3ccco3)nc2c(N)n1)c1ccccc1 (centres undefined) | 12 | 41
